Here are results for four compounds from EPA's ToxRefDB 2.

Each structure is given as a SMILES string. Bounds are passed on as bounds.

In series [1] the test system is rat. Particulars: Sub-acute repeat dose toxicity, sprague dawley, Oral, Gavage/Intubation, dose end: 28 day, group: systemic.
The subject of series [2] is rat. Particulars: Chronic toxicity, sprague dawley, Oral, Gavage/Intubation, dose end: 26 week, group: systemic.
In a further series the test system is primate. As to conditions: Subchronic oral toxicity in nonrodent, macaque, Gavage/Intubation, dose end: 28 day, group: systemic, systemic / clinical chemistry / [other] / [other] + systemic / in life observation / clinical signs / emesis + systemic / in life ….
The subject of series [3] is rat. Particulars: Subchronic oral toxicity in rodents, fischer, Feed, dose end: 13 week, group: systemic, systemic / hematology / erythrocyte (rbc) count differential / erythrocyte (rbc) + systemic / hematology / hematocrit (hct) / hematocrit (….
Series [4] deals with dog. Particulars: Sub-acute repeat dose toxicity, beagle, Injection, Intravenous, dose end: 1 month, group: systemic.
Series [5] has as its system rat. As to conditions: Subchronic oral toxicity in rodents, other, Feed, dose end: 15 week, group: cholinesterase.
The subject of series [6] is dog. As to conditions: Subchronic oral toxicity in nonrodent, beagle, Feed, dose end: 13 week.
Setting [7] is: systemic / clinical chemistry / alanine aminotransferase (alt/sgpt) / alanine aminotransferase (alt/sgpt) + systemic / clinical chemistry / ….
Where [8] appears, read: systemic / hematology / platelet / platelet + systemic / in life observation / clinical signs / salivation.
Setting [9] is: systemic / clinical chemistry / alanine aminotransferase (alt/sgpt) / alanine aminotransferase (alt/sgpt) + systemic / in life observation….
The mark [10] stands for this setting: systemic / clinical chemistry / [other] / [other] + systemic / hematology / erythrocyte (rbc) count differential / erythrocyte (rbc) + ….
Where [11] appears, read: systemic / urinalysis / potassium / potassium + systemic / urinalysis / sodium / sodium.
The mark [12] stands for this setting: cholinesterase / cholinesterase / cholinesterase / erythrocyte cholinesterase (che).
The mark [13] stands for this setting: cholinesterase / cholinesterase / cholinesterase / erythrocyte cholinesterase (che) + cholinesterase / cholinesterase / cholinesterase / ….
[14] abbreviates: group: cholinesterase, cholinesterase / cholinesterase / cholinesterase / erythrocyte cholinesterase (che) + cholinesterase / cholinesterase / cholinesterase / ….
[15] abbreviates: group: systemic, systemic / in life observation / clinical signs / [other].

Usually LOAEL stands for the lowest dose or exposure tested at which an adverse effect was seen. The term NOAEL denotes the highest tested level that showed no adverse finding. As to `CCCCN1C(=O)[C@@H]([C@H](O)C2CCCCC2)NC(=O)C12CCN(Cc1ccc(Oc3ccc(C(=O)O)cc3)cc1)CC2.Cl` [Aplaviroc hydrochloride], the LOAEL is greater than 1000 mg/kg/day with rat [1] (setting [7]), greater than 750 mg/kg/day with rat [2] (setting [7]) and greater than 1000 mg/kg/day in the series on primate. The NOAEL in the series with rat [1] (setting [7]) was no less than 1000 mg/kg/day; in the series on rat [2] (setting [7]), no less than 750 mg/kg/day; with primate, no less than 1000 mg/kg/day. Further, the LEL in the series on rat [1] (setting [8]) was found to be 30 mg/kg/day; in the series with rat [2] (setting [9]), 100 mg/kg/day; with primate it was 30 mg/kg/day. The NEL is less than 30 mg/kg/day in the series on rat [1] (setting [8]), less than 100 mg/kg/day with rat [2] (setting [9]) and less than 30 mg/kg/day in the series with primate.
Take `O=C(O)c1cc(O)c(O)c(O)c1` [Gallic acid]: in the series on rat [3], the LEL was determined as 300 mg/kg/day, the LOAEL amounted to 300 mg/kg/day, the NEL is 100 mg/kg/day and the NOAEL was determined as 100 mg/kg/day.
Turning to `CN(C)c1ccc(O)c2c1C[C@H]1C[C@H]3[C@H](N(C)C)C(=O)C(C(N)=O)=C(O)[C@@]3(O)C(=O)C1=C2O` [Minocycline], in the series with dog [4] (setting [10]), the LOAEL was greater than 40 mg/kg/day and the NOAEL is no less than 40 mg/kg/day. In the series on dog [4] (setting [11]), the LEL was 5 mg/kg/day and the NEL was less than 5 mg/kg/day.
In the series on rat [5] (setting [12]), `COP(=S)(OC)Oc1ccc(Sc2ccc(OP(=S)(OC)OC)cc2)cc1` [Temephos] had an LEL of 0.9 mg/kg/day and an LOAEL of 0.9 mg/kg/day. In addition, in the series with rat [5] (setting [13]), the NEL came to 0.3 mg/kg/day and the NOAEL was 0.3 mg/kg/day. For the same compound, in the series on dog [6] (setting [14]), the LEL amounted to 12.5 mg/kg/day, the LOAEL is 12.5 mg/kg/day, the NEL was 0.46 mg/kg/day and the no observed adverse effect level (NOAEL) stood at 0.46 mg/kg/day. Besides, in the series on dog [6] (setting [15]), the LEL is 12.5 mg/kg/day, the LOAEL worked out at 12.5 mg/kg/day, the NEL was determined as 0.46 mg/kg/day and the NOAEL came out at 0.46 mg/kg/day.
